Like-named read-outs stand apart in the source and are kept apart here.

From US20250092065A1, “2-(INDAZOL-5-YL)-6-(PIPERIDIN-4-YL)-1,7-NAPHTHYRIDINE DERIVATIVES AND RELATED COMPOUNDS AS MODULATORS FOR SPLICING NUCLEIC ACIDS AND FOR THE TREATMENT OF PROLIFERATIVE DISEASES” (REMIX THERAPEUTICS INC., priority 2022, published 2025) come the findings set out here.

For series [1], the system named is MYB. Briefly: HiBiT protein abundance assay, MYB (K562 HiBiT knock-in). The series is classed as cell-based, human. As to conditions: HiBiT knock-in K562 cells, 24 hours, top dose 10 μM. The method, boiled down: (§1)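 Endogenously HiBiT-tagged K562 lines were treated for 24 h at 37 °C with 10-point 3-fold dilutions (top 10 μM final, DMSO ≤0.25%). Lytic LgBiT complementation luminescence was normalized between unmodified K562 (PC) and DMSO-treated tagged cells (NC); IC50 was interpolated at 50% from a four-parameter logistic fit.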

Series [2] has as its system MYB mRNA. Briefly: RT-qPCR splicing assay, MYB mRNA canonical (CJ) and alternative (AJ) junction. The series is classed as cell-based, human. The following applies: Homo sapiens; for AC50: MYB alternative junction mRNA, read-out: MYB AJ (increase in AJ mRNA, AC50). The method, boiled down:
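Both isoforms, CJ and AJ, read by qPCR from crude lysates of treated A673 or K562 cells; 24 h, 37 °C, maximum 10 uM. Normalization: housekeeper ΔCt, then DMSO ΔΔCt.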

Series [3] relates to Target C. Briefly: HiBiT protein abundance assay, Target C (K562 HiBiT knock-in). The format is cell-based, human. The following applies: HiBiT knock-in K562 cells, 24 hours, top dose 10 μM. The method, boiled down:
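K562 HiBiT knock-in cells (10000/well) were treated 24 h at 37° C with a 10-point 3-fold dilution series (top 10 μM final, ≤0.25% DMSO). HiBiT luminescence was read after lytic LgBiT detection. Percent response used unmodified K562 and DMSO-treated knock-in controls, and IC50 came from a four-parameter fit at 50% of untreated.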

Series [4] concerns K562 cells. Briefly: Cell Titer Glo 2.0 cell viability (toxicity) assay, K562. As to conditions: 500 cells/well, 72 hours.
Procedure: Compounds described herein were screened for toxicity in K562 (human chronic myelogenous leukemia) and SH-SY5Y (human neuroblastoma) cells using a Cell Titer Glo 2.0 assay.
Cells were plated at 500 cells/well (K562 cells) in 45 μL of IMDM supplemented with 10% FBS in a 384-well opaque plate. Wells containing only medium were used as a blank control. Test compounds (e.g., compounds of Formula (I) or (II)) were first serially diluted in DMSO then diluted 1:100 with EIDM+10% FBS. The final concentration of DMSO was 0.1% in each well. The cells were incubated for 72 hours at 37° C. and 5% CO2 before assaying with Cell Titer Glo 2.0 reagent.
In series [5] the test system is HTT. Briefly: HiBiT protein abundance assay, HTT (K562 HiBiT knock-in). The series is classed as cell-based, human. As to conditions: HiBiT knock-in K562 cells, 24 hours, top dose 10 μM. The method, boiled down: as §1
Where [6] appears, read: MYB canonical junction mRNA, RT-qPCR, read-out: MYB CJ (decrease in CJ mRNA levels, IC50).
Setting [7] is: canonical junction qPCR panel, Table 4, read-out: MYB IC50 (decrease in CJ mRNA levels).

For the compound `Cc1c(O)c(-c2ncc3nc(C4CCNCC4)ccc3n2)cc2cn(C)nc12` [Compound 370, 2,7-dimethyl-5-[6-(piperidin-4-yl)pyrido[3,2-d]pyrimidin-2-yl]indazol-6-ol], the IC50 in series [1], in series [2] (setting [6]), in series [2] (setting [7]), in series [3] and in series [5] was 100 to 1000 nM each time. Also, in series [2] (RT-qPCR), the AC50 is 100 to 1000 nM. For the same compound, in series [4], the “Effect of Exemplary Compounds on Cell Viability, K562” value (from here on “Effect of Exemplary Compounds”) is “C (C represents 1000-9999 nM)”.
Take `Cc1nc2c(F)c(O)c(-c3ccc4nc(N5CC[C@H](N[C@H]6C[C@@H](F)C6)C5)ccc4n3)cc2o1` [Compound 374, 4-fluoro-2-methyl-6-[6-(3-{[(1r,3r)-3-fluorocyclobutyl]amino}pyrrolidin-1-yl)-1,5-naphthyridin-2-yl]-1,3-benzoxazol-5-ol]: the IC50 in series [1], in series [2] (setting [6]), in series [2] (setting [7]), in series [3] and in series [5] was less than 100 nM each time. Also, the AC50 in series [2] (RT-qPCR) was less than 100 nM. The “Effect of Exemplary Compounds” value in series [4] was “A (A represents <100 nM)”.
Regarding `CNC1CCN(c2ccc3nc(-c4cc(C#N)c5nc(C)cn5c4)ncc3n2)C1` (stereo not shown) [Compound 382, 2-methyl-6-{6-[3-(methylamino)pyrrolidin-1-yl]pyrido[3,2-d]pyrimidin-2-yl}imidazo[1,2-a]pyridine-8-carbonitrile], the IC50 was less than 100 nM in series [1]; less than 100 nM in series [2] (setting [6]); less than 100 nM in series [2] (setting [7]); 1000 to 10000 nM in series [3]; 100 to 1000 nM in series [5]. The concentration at half-maximal activity (AC50) in series [2] (RT-qPCR) was less than 100 nM. Moreover, the “Effect of Exemplary Compounds” value in series [4] is on record as “A (A represents <100 nM)”.
On to `Cn1cc2cc(-c3ccc4nc(N5CC[C@H](NC6CC(F)(F)C6)C5)ccc4n3)c(O)cc2n1` [Compound 384], for which the IC50 in series [1] lay in the range of 1000 to 10000 nM; in series [2] (setting [6]), 100 to 1000 nM; in series [2] (setting [7]), 100 to 1000 nM; in series [3], 1000 to 10000 nM; in series [5], 1000 to 10000 nM. The AC50 in series [2] (RT-qPCR) lay within 100 to 1000 nM. The “Effect of Exemplary Compounds” value in series [4] is listed as “D (D represents greater than 10 μM in K562 cells)”.
Consider `Cn1cc2cc(-c3ccc4nc(N5CC[C@@H](NC6CC(F)(F)C6)C5)ccc4n3)c(O)cc2n1` [Compound 385], for which the IC50 was 100 to 1000 nM in series [1]; 100 to 1000 nM in series [2] (setting [6]); 100 to 1000 nM in series [2] (setting [7]); 100 to 1000 nM in series [3]; less than 100 nM in series [5]. Moreover, in series [2] (RT-qPCR), the AC50 lay in the range of 100 to 1000 nM. Besides, the “Effect of Exemplary Compounds” value in series [4] was “D (D represents greater than 10 μM in K562 cells)”.
Regarding `Cn1cc2cc(-c3ccc4nc(N5CCC(NCC6CC6)C5)ccc4n3)c(O)c(F)c2n1` (stereo not shown) [Compound 387, 5-(6-{3-[(cyclopropylmethyl)amino]pyrrolidin-1-yl}-1,5-naphthyridin-2-yl)-7-fluoro-2-methylindazol-6-ol], the IC50 in series [1], in series [2] (setting [6]), in series [2] (setting [7]), in series [3] and in series [5] was less than 100 nM throughout. The half-maximal activity concentration (AC50) in series [2] (RT-qPCR) is less than 100 nM. In series [4], the “Effect of Exemplary Compounds” value is “A (A represents <100 nM)”.
With `CC(C)NC1CCN(c2ccc3nc(-c4cc5cn(C)nc5c(F)c4O)ccc3n2)C1` (stereo not shown) [Compound 388, 7-fluoro-5-{6-[3-(isopropylamino)pyrrolidin-1-yl]-1,5-naphthyridin-2-yl}-2-methylindazol-6-ol], the 50% inhibitory concentration (IC50) in series [1], in series [2] (setting [6]), in series [2] (setting [7]), in series [3] and in series [5] was less than 100 nM throughout. The concentration at half-maximal activity (AC50) in series [2] (RT-qPCR) is less than 100 nM. Moreover, in series [4], the “Effect of Exemplary Compounds” value is “A (A represents <100 nM)”.
For `Cc1nc2cc(O)c(-c3ccc4nc(N5CCC(NCC6CC6)C5)ccc4n3)cc2o1` (stereo not shown) [Compound 389, 6-(6-{3-[(cyclopropylmethyl)amino]pyrrolidin-1-yl}-1,5-naphthyridin-2-yl)-2-methyl-1,3-benzoxazol-5-ol], the IC50 in series [1], in series [2] (setting [6]), in series [2] (setting [7]), in series [3] and in series [5] was less than 100 nM throughout. Moreover, the AC50 in series [2] (RT-qPCR) is less than 100 nM. Also, the “Effect of Exemplary Compounds” value in series [4] is “B (B represents 100-1000 nM)”.
Turning to `Cc1nc2c(C)c(O)c(-c3ccc4nc(N5CCC(NCC6CC6)C5)ccc4n3)cc2o1` (stereo not shown) [Compound 390, 6-(6-{3-[(cyclopropylmethyl)amino]pyrrolidin-1-yl}-1,5-naphthyridin-2-yl)-2,4-dimethyl-1,3-benzoxazol-5-ol], the 50% inhibitory concentration (IC50) in series [1], in series [2] (setting [6]), in series [2] (setting [7]), in series [3] and in series [5] was less than 100 nM in each case. In series [2] (RT-qPCR), the AC50 was less than 100 nM. Besides, the “Effect of Exemplary Compounds” value in series [4] was “A (A represents <100 nM)”.
In the case of `CNC1CCN(c2ccc3nc(-c4cc(F)c5nc(C)cn5c4)ncc3n2)C1` (stereo not shown) [Compound 393, 1-(2-{8-fluoro-2-methylimidazo[1,2-a]pyridin-6-yl}pyrido[3,2-d]pyrimidin-6-yl)-N-methylpyrrolidin-3-amine], the IC50 in series [1] was less than 100 nM; in series [2] (setting [6]) it was less than 100 nM; in series [2] (setting [7]), less than 100 nM; in series [3], 100 to 1000 nM; in series [5], 100 to 1000 nM. The AC50 in series [2] (RT-qPCR) is less than 100 nM. Also, in series [4], the “Effect of Exemplary Compounds” value is “B (B represents 100-1000 nM)”.
As to `Cc1c(O)c(-c2ncc3nc(C4CCNC4)ccc3n2)cc2cn(C)nc12` (stereo not shown) [Compound 397, 2,7-dimethyl-5-[6-(pyrrolidin-3-yl)pyrido[3,2-d]pyrimidin-2-yl]indazol-6-ol; trifluoroacetic acid], the half-maximal inhibitory concentration (IC50) in series [1] lay in the range of 100 to 1000 nM; in series [2] (setting [6]) it was 100 to 1000 nM; in series [2] (setting [7]), 100 to 1000 nM; in series [3], 1000 to 10000 nM; in series [5], 1000 to 10000 nM. Further, the AC50 in series [2] (RT-qPCR) is 100 to 1000 nM. Moreover, the “Effect of Exemplary Compounds” value in series [4] is “B (B represents 100-1000 nM)”.
For `Cc1c(O)c(-c2ncc3nc([C@H]4CCNC4)ccc3n2)cc2cn(C)nc12` [Compound 399], the IC50 in series [1] is 1000 to 10000 nM; in series [2] (setting [6]), 1000 to 10000 nM; in series [2] (setting [7]), 1000 to 10000 nM; in series [3], more than 10000 nM; in series [5] it was more than 10000 nM. Further, the concentration at half-maximal activity (AC50) in series [2] (RT-qPCR) lay within 1000 to 10000 nM. Besides, the “Effect of Exemplary Compounds” value in series [4] was “C (C represents 1000-9999 nM)”.
Consider `Cn1cc2cc(-c3ncc4nc(C5CCNCC5)ccc4n3)c(O)c(C#N)c2n1` [Compound 403, 6-hydroxy-2-methyl-5-[6-(piperidin-4-yl)pyrido[3,2-d]pyrimidin-2-yl]indazole-7-carbonitrile; trifluoroacetic acid], for which the IC50 in series [1] is less than 100 nM; in series [2] (setting [6]) it was 100 to 1000 nM; in series [2] (setting [7]), 100 to 1000 nM; in series [3], 100 to 1000 nM; in series [5], 100 to 1000 nM. Also, the AC50 in series [2] (RT-qPCR) is less than 100 nM. The “Effect of Exemplary Compounds” value in series [4] is “B (B represents 100-1000 nM)”.
As to `Cn1cc2cc(-c3ccc4nc(N5CCC(NC(C)(C)C)C5)ncc4n3)c(O)cc2n1` (stereo not shown) [Compound 404, 5-{2-[3-(tert-butylamino)pyrrolidin-1-yl]pyrido[3,2-d]pyrimidin-6-yl}-2-methylindazol-6-ol], the IC50 in series [1] is 100 to 1000 nM; in series [2] (setting [6]), 100 to 1000 nM; in series [2] (setting [7]), 100 to 1000 nM; in series [3], less than 100 nM; in series [5], less than 100 nM. The AC50 in series [2] (RT-qPCR) was 100 to 1000 nM. Further, the “Effect of Exemplary Compounds” value in series [4] is reported as “B (B represents 100-1000 nM)”.
Regarding `COc1cc(-c2ccc3nc(N4CCC(NC(C)(C)C)C4)ncc3n2)cnn1` (stereo not shown) [Compound 405, N-tert-butyl-1-[6-(6-methoxypyridazin-4-yl)pyrido[3,2-d]pyrimidin-2-yl]pyrrolidin-3-amine], the IC50 in series [1], in series [2] (setting [6]), in series [2] (setting [7]), in series [3] and in series [5] was 1000 to 10000 nM throughout. Besides, the AC50 in series [2] (RT-qPCR) was 1000 to 10000 nM. In series [4], the “Effect of Exemplary Compounds” value was “C (C represents 1000-9999 nM)”.
Take `CN[C@H]1CCN(c2ccc3nc(-c4cc(C#N)c5nc(C)cn5c4)ncc3n2)C1` [Compound 406, 2-methyl-6-{6-[(3S)-3-(methylamino)pyrrolidin-1-yl]pyrido[3,2-d]pyrimidin-2-yl}imidazo[1,2-a]pyridine-8-carbonitrile]: the half-maximal inhibitory concentration (IC50) fell in the range of 100 to 1000 nM in series [1]; 1000 to 10000 nM in series [2] (setting [6]); 1000 to 10000 nM in series [2] (setting [7]); 1000 to 10000 nM in series [3]; 1000 to 10000 nM in series [5]. Besides, the AC50 in series [2] (RT-qPCR) is 100 to 1000 nM. Besides, in series [4], the “Effect of Exemplary Compounds” value was “B (B represents 100-1000 nM)”.
